Test results: US6399641B1, “2H-tetrazole-amide compounds with therapeutic activity as metabotropic glutamate receptor agonists” (Hoffmann-la Roche Inc., priority 2000, dated 2002)

Tests used:
rat mGlu1a receptor = target: T1, rat mGlu1a receptor (Rattus norvegicus, UniProt P23385); experiment: [Ca2+]i measurement (FLIPR) on mGlu1a transfected EBNA cells; type: cell-based; details: agonist activity, rat mGlu1a transiently transfected EBNA cells, Fluo-3 AM
T1 construct: expressed in transfected cells; host or cells: EBNA cells (transient transfection)
Protocol: cDNA encoding for rat mGlu1a receptor obtained from Prof. S. Nakanishi (Kyoto, Japan) was transiently transfected into EBNA cells using a procedure described by Schlaeger & Christensen, 1998. [Ca^2+]i measurement were performed on mGlu1a transfected EBNA cells after incubation of the cells with Fluo-3 AM (0.5 μM final concentration) for 1 hour at 37° C. followed by 4 washes with assay buffer (DMEM supplemented with Hank's salt and 20 mM HEPES). [Ca^2+]i measurement were done using a fluorometric imaging plate reader (FLIPR, Molecular Devices Corporation, La Jolla, Calif., USA). When compounds were evaluated as antagonists they were tested against 10 μM glutamate as agonist.
The inhibition (antagonists) or activation (agonists) curves were fitted with a four parameter logistic equation giving EC50, IC50 and Hill coefficient using the iterative non linear curve fitting software Origin (Microcal Software Inc., Northampton, Mass., USA). E.-J. Schlaeger and K. Christensen Transient gene expression in mammalian cells grown in serum-free suspension culture. Cytotechnology, 30:71-83, 1999.

T1 sequence (P23385 19-1199): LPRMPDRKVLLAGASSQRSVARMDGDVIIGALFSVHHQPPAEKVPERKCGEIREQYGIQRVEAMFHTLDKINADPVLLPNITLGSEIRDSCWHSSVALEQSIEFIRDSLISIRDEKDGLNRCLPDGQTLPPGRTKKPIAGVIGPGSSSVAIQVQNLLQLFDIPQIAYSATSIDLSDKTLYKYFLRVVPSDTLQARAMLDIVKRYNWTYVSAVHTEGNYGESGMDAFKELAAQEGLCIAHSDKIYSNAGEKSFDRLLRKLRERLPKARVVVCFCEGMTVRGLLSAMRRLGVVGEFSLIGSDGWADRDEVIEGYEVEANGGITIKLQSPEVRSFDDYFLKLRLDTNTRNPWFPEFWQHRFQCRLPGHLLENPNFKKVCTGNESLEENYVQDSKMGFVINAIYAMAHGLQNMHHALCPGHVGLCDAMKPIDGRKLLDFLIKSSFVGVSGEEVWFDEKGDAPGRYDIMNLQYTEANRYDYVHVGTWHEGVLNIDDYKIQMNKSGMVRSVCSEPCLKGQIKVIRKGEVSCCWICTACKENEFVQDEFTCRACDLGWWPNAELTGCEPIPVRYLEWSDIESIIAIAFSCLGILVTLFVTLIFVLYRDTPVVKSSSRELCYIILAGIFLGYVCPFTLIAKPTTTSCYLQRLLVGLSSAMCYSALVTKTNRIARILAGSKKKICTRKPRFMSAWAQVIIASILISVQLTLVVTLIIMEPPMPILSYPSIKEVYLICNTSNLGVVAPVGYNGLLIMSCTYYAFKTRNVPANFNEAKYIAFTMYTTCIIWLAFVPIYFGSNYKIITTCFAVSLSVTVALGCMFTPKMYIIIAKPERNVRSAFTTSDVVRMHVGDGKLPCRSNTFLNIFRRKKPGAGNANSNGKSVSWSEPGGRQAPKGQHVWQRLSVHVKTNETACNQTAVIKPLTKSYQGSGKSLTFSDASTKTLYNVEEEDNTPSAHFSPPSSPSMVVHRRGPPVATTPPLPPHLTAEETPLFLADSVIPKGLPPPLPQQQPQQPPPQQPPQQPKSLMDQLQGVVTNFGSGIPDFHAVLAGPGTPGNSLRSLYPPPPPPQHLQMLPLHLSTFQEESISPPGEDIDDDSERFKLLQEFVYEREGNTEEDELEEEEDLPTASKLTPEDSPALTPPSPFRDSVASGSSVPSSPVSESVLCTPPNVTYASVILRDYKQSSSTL

| Compound | EC50 (rat mGlu1a receptor) [nM] | melting point |
| --- | --- | --- |
| Cn1nnc(NC(=O)C(c2ccccc2)c2ccccc2)n1 [Example 1, N-(2-Methyl-2H-tetrazol-5-yl)-2,2-diphenyl-acetamide] | 220 | 218 °C (dec.) |
| Cn1nnc(NC(=O)C2c3ccccc3Oc3ccccc32)n1 [Example 2, 9-Xanthene-9-carboxylic acid (2-methyl-2H-tetrazol-5-yl)-amide] | 180 | 247 °C (dec.) |
| CCn1nnc(NC(=O)C(c2ccccc2)c2ccccc2)n1 [Example 3, N-(2-Ethyl-2H-tetrazol-5-yl)-2,2-diphenyl-acetamide] | – | 169 to 170 °C |
| CCn1nnc(NC(=O)C2c3ccccc3Oc3ccccc32)n1 [Example 4, 9H-Xanthene-9-carboxylic acid (2-ethyl-2H-tetrazol-5-yl)-amide] | – | 228 °C (dec.) |
| O=C(Nc1nnn(CC2CC2)n1)C(c1ccccc1)c1ccccc1 [Example 5, N-(2-Cyclopropylmethyl-2H-tetrazol-5-yl)-2,2-diphenyl-acetamide] | – | 147 to 148 °C |
| O=C(Nc1nnn(CC2CC2)n1)C1c2ccccc2Oc2ccccc21 [Example 6, 9H-Xanthene-9-carboxylic acid (2-cyclopropylmethyl-2H-tetrazol-5-yl)-amide] | – | 222 to 224 °C |
| CC(C)n1nnc(NC(=O)C(c2ccccc2)c2ccccc2)n1 [Example 7, N-(2-Isopropyl-2H-tetrazol-5-yl)-2,2-diphenyl-acetamide] | 100 | 175 to 177 °C |
| CC(C)n1nnc(NC(=O)C2c3ccccc3Oc3ccccc32)n1 [Example 8, 9H-Xanthene-9-carboxylic acid (2-isopropyl-2H-tetrazol-5-yl)-amide] | 45 | – |
| O=C(Nc1nnn(CC(F)(F)F)n1)C(c1ccccc1)c1ccccc1 [Example 9, 2,2-Diphenyl-N-[2-(2,2,2-trifluoro-ethyl)-2H-tetrazol-5-yl]-acetamide] | 2000 | 146 to 148 °C |
| O=C(Nc1nnn(CC(F)(F)F)n1)C1c2ccccc2Oc2ccccc21 [Example 10, 9H-Xanthene-9-carboxylic acid [2-(2,2,2-trifluoro-ethyl)-2H-tetrazol-5-yl]-amide] | 170 | 209 to 210 °C |
| CCCn1nnc(NC(=O)C(c2ccccc2)c2ccccc2)n1 [Example 11, 2,2-Diphenyl-N-(2-propyl-2H-tetrazol-5-yl)-acetamide] | – | 124 to 125 °C |
| CCCn1nnc(NC(=O)C2c3ccccc3Oc3ccccc32)n1 [Example 12, 9H-Xanthene-9-carboxylic acid (2-propyl-2H-tetrazol-5-yl)-amide] | – | 208 to 209 °C |
| COCn1nnc(NC(=O)C(c2ccccc2)c2ccccc2)n1 [Example 13, N-(2-Methoxymethyl-2H-tetrazol-5-yl)-2,2-diphenyl-acetamide] | – | 127 to 128 °C |
| COCn1nnc(NC(=O)C2c3ccccc3Oc3ccccc32)n1 [Example 14, 9H-Xanthene-9-carboxylic acid (2-methoxymethyl-2H-tetrazol-5-yl)-amide] | – | 221 to 222 °C |
| CC(C)(C)n1nnc(NC(=O)C(c2ccccc2)c2ccccc2)n1 [Example 15, N-(2-tert-Butyl-2H-tetrazol-5-yl)-2,2-diphenyl-acetamide] | – | 191 to 192 °C |
| CC(C)(C)n1nnc(NC(=O)C2c3ccccc3Oc3ccccc32)n1 [Example 16, 9H-Xanthene-9-carboxylic acid (2-tert-butyl-2H-tetrazol-5-yl)-amide] | – | 230 to 231 °C |
| O=C(Nc1nnn(C(F)F)n1)C(c1ccccc1)c1ccccc1 [Example 17, N-(2-Difluoromethyl-2H-tetrazol-5-yl)-2,2-diphenyl-acetamide] | – | 143 to 145 °C |

Continued, values first:

| EC50 (rat mGlu1a receptor) [nM] | melting point | Compound |
| --- | --- | --- |
| 1390 | – | 9H-Thioxanthene-9-carboxylic acid (2-ethyl-2H-tetrazol-5-yl)-amide [Example 25] |
| 470 | 158 to 159 °C | CCn1nnc(NC(=O)C2c3ccccc3COc3ccccc32)n1 (racemic) [Example 24, (RS)-6,11 -Dihydro-dibenzo[b,e]oxepine-11-carboxylic acid (2-ethyl-2H-tetrazol-5-yl)-amide] |
| – | 259 to 260 °C (dec.) | CCn1nnc(NC(=O)C2c3ccccc3Oc3cccc(OC)c32)n1 (racemic) [Example 26, (RS)-1-Methoxy-9H-xanthene-9-carboxylic acid (2-ethyl-2H-tetrazol-5-yl)-amide] |
| 190 | 208 to 210 °C (dec.) | CCn1nnc(NC(=O)C2c3ccccc3Oc3ccc(OC)cc32)n1 (racemic) [Example 27, (RS)-2-Methoxy-9H-xanthene-9-carboxylic acid (2-ethyl-2H-tetrazol-5-yl)-amide] |
| – | 239 to 240 °C (dec.) | CCn1nnc(NC(=O)C2c3ccccc3Oc3c(OC)cccc32)n1 (racemic) [Example 28, (RS)-4-Methoxy-9H-xanthene-9-carboxylic acid (2-ethyl-2H-tetrazol-5-yl)-amide] |
| – | 168 to 169 °C | O=C(Nc1nnn(C(F)F)n1)C1c2ccccc2Oc2ccccc21 [Example 18, 9H-Xanthene-9-carboxylic acid (2-difluoromethyl-2H-tetrazol-5-yl)-amide] |
| – | 173 to 174 °C | N#CCn1nnc(NC(=O)C(c2ccccc2)c2ccccc2)n1 [Example 19, N-(2-Cyanomethyl-2H-tetrazol-5-yl)-2,2-diphenyl-acetamide] |
| – | 204 to 205 °C | N#CCn1nnc(NC(=O)C2c3ccccc3Oc3ccccc32)n1 [Example 20, 9H-Xanthene-9-carboxylic acid (2-cyanomethyl-2H-tetrazol-5-yl)-amide] |
| – | 168 to 169 °C | COC(=O)Cn1nnc(NC(=O)C(c2ccccc2)c2ccccc2)n1 [Example 21, (5-Diphenylacetylamino-tetrazol-2-yl)-acetic acid methyl ester] |
| – | 243 to 244 °C | COC(=O)Cn1nnc(NC(=O)C2c3ccccc3Oc3ccccc32)n1 [Example 22, {5-[(9H-Xanthene-9-carbonyl)-amino]-tetrazol-2-yl}-acetic acid methyl ester] |
| – | 206 to 207 °C | CCn1nnc(NC(=O)C2c3ccccc3Cc3ccccc32)n1 [Example 23, 9,10-Dihydro-anthracene-9-carboxylic acid (2-ethyl-2H-tetrazol-5-yl)-amide] |
